From patent US11413278B2, “Compounds and methods for promoting stress resistance” (priority 2015, dated 2022)
Read-outs that look alike come from different tables or passages of the source.

Tests used:
human PARP1 = molecular target: T1, human PARP1 (Homo sapiens, UniProt P09874); assay: PARP inhibitor assay (HT Fluorescent Homogeneous PARP Inhibition Assay Kit); type: biochemical; settings: score
T1 construct: purchased Trevigen
Procedure: (§1) The assay was performed with the HT Fluorescent Homogeneous PARP Inhibition Assay Kit (Trevigen), following manufacturer's instructions. Briefly, nicotinamide adenine dinucleotide, human PARP1 and activated-DNA solution was added onto a 96-well plate. 54 repurchased small molecules, at 10 μM final concentration, were introduced onto the 96-well assay plate and incubated in a humid chamber at room temperature for 30 min in dark. Cycling mixture, with resazurin and cycling enzyme diaphorase, was then added and incubated further for 1 hr in dark. Reaction was terminated by adding the stopping buffer.
as §1, with “(Trevegen),” for “(Trevigen),”, “stopped” for “terminated”

FOXO3 = assay: qPCR analysis of FOXO3-regulated genes; type: cell-based, human; settings: for fold induction at 10 µM: Homo sapiens
Procedure, shortened: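 FOXO3 target-gene expression quantified by qPCR normalised to B2M, PPIA and GAPDH, in WI-38 cells after 24 h exposure to 10 μM compound. Some runs used cells first transfected 36 h with 10 nM FOXO3 or NRF2 siRNA and replated ~24 h before dosing.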

NRF2 = assay: qPCR analysis of NRF2-regulated genes; type: cell-based, human; settings: for fold induction at 10 µM: Homo sapiens
Procedure, shortened: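 Expression of HMOX1, NQO1, GCLC and GSTM1 measured by qPCR relative to B2M, PPIA and GAPDH. Cells were WI-38 fibroblasts exposed 24 hrs to 10 μM compound, with RNA and cDNA prepared via Cells-to-Ct. Where stated, cells were first transfected 36 hrs with FOXO3 or NRF2 siRNA at 10 nM.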

C. elegans = C. elegans lifespan assays (liquid and plate); type: in vivo, Caenorhabditis elegans; settings: for ILS at 60 µM / ILS at 66 µM: Caenorhabditis elegans

T1 sequence (P09874 whole entry): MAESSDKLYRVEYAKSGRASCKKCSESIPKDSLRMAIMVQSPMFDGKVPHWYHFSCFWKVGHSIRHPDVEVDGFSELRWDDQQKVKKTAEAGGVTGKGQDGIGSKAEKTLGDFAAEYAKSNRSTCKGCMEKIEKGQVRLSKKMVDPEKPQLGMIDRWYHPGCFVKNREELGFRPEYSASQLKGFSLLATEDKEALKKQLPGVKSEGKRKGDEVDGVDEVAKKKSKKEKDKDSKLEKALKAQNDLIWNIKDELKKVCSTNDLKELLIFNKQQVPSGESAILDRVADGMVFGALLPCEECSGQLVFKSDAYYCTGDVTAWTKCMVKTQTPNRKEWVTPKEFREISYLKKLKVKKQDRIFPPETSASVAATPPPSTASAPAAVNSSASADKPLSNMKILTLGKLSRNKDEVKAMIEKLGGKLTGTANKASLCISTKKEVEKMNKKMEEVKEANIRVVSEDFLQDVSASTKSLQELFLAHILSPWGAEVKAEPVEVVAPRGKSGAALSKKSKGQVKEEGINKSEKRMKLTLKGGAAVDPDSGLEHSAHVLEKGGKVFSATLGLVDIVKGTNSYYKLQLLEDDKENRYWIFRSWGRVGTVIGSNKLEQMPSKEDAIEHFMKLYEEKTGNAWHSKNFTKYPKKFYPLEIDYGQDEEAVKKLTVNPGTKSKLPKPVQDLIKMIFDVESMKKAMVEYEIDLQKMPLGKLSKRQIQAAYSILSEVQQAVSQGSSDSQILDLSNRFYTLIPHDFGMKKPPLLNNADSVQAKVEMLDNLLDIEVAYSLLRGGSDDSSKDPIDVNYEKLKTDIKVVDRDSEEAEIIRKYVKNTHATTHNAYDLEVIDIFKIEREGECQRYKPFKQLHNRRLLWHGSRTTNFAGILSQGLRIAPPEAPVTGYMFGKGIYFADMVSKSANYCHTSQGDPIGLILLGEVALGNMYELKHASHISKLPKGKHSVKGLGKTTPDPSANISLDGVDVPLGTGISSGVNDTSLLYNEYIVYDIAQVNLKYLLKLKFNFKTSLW

O=C(NCc1cccnc1)/C(=C/c1ccc(-c2ccc(Cl)cc2)o1)S(=O)(=O)c1ccccc1 [Gr-7C]
L = PARP inhibition (human PARP1): 0
SOD2 expression, normalized fold change (FOXO3-regulated gene) (FOXO3; 10 μM, 24 hrs, WI-38 cells, qPCR, normalized to B2M, n = 4): SOD2 2.67, fold
E = Potential FOXO3 Activation (FOXO3; 2-point score): 2
Potential FOXO3 Activation (>=2 target genes induced, by >=1.5-fold) (FOXO3; Assay 11(n)): YES
fold induction at 10 µM (FOXO3; 24 h, Assay 10(m), at 10 uM, qPCR, read-out: Induction of FOXO3-regulated genes: CAT normalized fold-change): 1.43
fold induction at 10 µM (FOXO3; 24 h, Assay 10(m), at 10 uM, qPCR, read-out: Induction of FOXO3-regulated genes: DDB1 normalized fold-change): 1.36
fold induction at 10 µM (FOXO3; 24 h, Assay 10(m), at 10 uM, qPCR, read-out: Induction of FOXO3-regulated genes: GADD45A normalized fold-change): 10.9
fold induction at 10 µM (FOXO3; 24 h, Assay 10(m), at 10 uM, qPCR, read-out: Induction of FOXO3-regulated genes: SOD2 normalized fold-change): 2.67
fold induction at 10 µM (FOXO3; 24 h, Assay 10(m), at 10 uM, qPCR, read-out: Induction of FOXO3-regulated genes: TXNIP normalized fold-change): 0.07
fold induction at 10 µM (FOXO3; 10 μM, 24 hrs, WI-38 cells, qPCR, normalized to B2M, n = 4, read-out: CAT expression, normalized fold change (FOXO3-regulated gene)): 1.43
fold induction at 10 µM (FOXO3; 10 μM, 24 hrs, WI-38 cells, qPCR, normalized to B2M, n = 4, read-out: DDB1 expression, normalized fold change (FOXO3-regulated gene)): 1.36
fold induction at 10 µM (FOXO3; 10 μM, 24 hrs, WI-38 cells, qPCR, normalized to B2M, n = 4, read-out: GADD45A expression, normalized fold change (FOXO3-regulated gene)): 10.9
fold induction at 10 µM (FOXO3; 10 μM, 24 hrs, WI-38 cells, qPCR, normalized to B2M, n = 4, read-out: TXNIP expression, normalized fold change (FOXO3-regulated gene)): 0.07
fold induction at 10 µM (FOXO3; WI-38 cells, 10 μM, 24 hrs, n=4, qPCR normalized by B2M, read-out: DDB1 Normalized fold change): 1.36
fold induction at 10 µM (FOXO3; WI-38 cells, 10 μM, 24 hrs, n=4, qPCR normalized by B2M, read-out: GADD45A Normalized fold change): 10.9
fold induction at 10 µM (FOXO3; WI-38 cells, 10 μM, 24 hrs, n=4, qPCR normalized by B2M, read-out: SESN1 Normalized fold change): 1.28
fold induction at 10 µM (FOXO3; fold change, qPCR, WI-38 cells, 10 μM, 24 hrs, read-out: Summary of effects on FOXO3-regulated genes: CAT): 1.43
fold induction at 10 µM (FOXO3; fold change, qPCR, WI-38 cells, 10 μM, 24 hrs, read-out: Summary of effects on FOXO3-regulated genes: DDB1): 1.36
fold induction at 10 µM (FOXO3; fold change, qPCR, WI-38 cells, 10 μM, 24 hrs, read-out: Summary of effects on FOXO3-regulated genes: GADD45A): 10.9
fold induction at 10 µM (FOXO3; fold change, qPCR, WI-38 cells, 10 μM, 24 hrs, read-out: Summary of effects on FOXO3-regulated genes: TXNIP): 0.07
fold induction at 10 µM (FOXO3; qPCR, WI-38 cells, 10 μM, n=4, 24 hrs, normalized by B2M, read-out: CAT Normalized fold change): 1.43
fold induction at 10 µM (FOXO3; qPCR, WI-38 cells, 10 μM, n=4, 24 hrs, normalized by B2M, read-out: SOD2 Normalized fold change): 2.68
fold induction at 10 µM (FOXO3; qPCR, WI-38 cells, 10 μM, n=4, 24 hrs, normalized by B2M, read-out: TXNIP Normalized fold change): 0.068
Summary of effects on FOXO3-regulated genes: SOD2 (FOXO3; fold change, qPCR, WI-38 cells, 10 μM, 24 hrs): SOD2 2.67,
K = Sestrin induction (FOXO3; score): 0
E = Potential FOXO3 Activation (FOXO3; summary score): 2
F = Potential NRF2 Activation (NRF2; 2-point score): 2
Potential NRF2 Activation (>=2 target genes induced, by >=1.5-fold) (NRF2; Assay 13(p)): YES
fold induction at 10 µM (NRF2; 24 h, Assay 12(o), at 10 uM, qPCR, read-out: Induction of NRF2-regulated genes: GCLC normalized fold-change): 2.27
fold induction at 10 µM (NRF2; 24 h, Assay 12(o), at 10 uM, qPCR, read-out: Induction of NRF2-regulated genes: GSTM1 normalized fold-change): 0.78
fold induction at 10 µM (NRF2; 24 h, Assay 12(o), at 10 uM, qPCR, read-out: Induction of NRF2-regulated genes: HMOX1 normalized fold-change): 28.1
fold induction at 10 µM (NRF2; rounded fold change, WI-38 cells, 10 μM, 24 hrs (RP11 for Gr-1D, RP29 for Gr-4D), read-out: Summary of effects on NRF2-regulated genes: HMOX1): 28.1
fold induction at 10 µM (NRF2; rounded fold change, WI-38 cells, 10 μM, 24 hrs (RP29 for Gr-4D), read-out: Summary of effects on NRF2-regulated genes: GSTM1): 0.78
fold induction at 10 µM (NRF2; rounded fold change, WI-38 cells, 10 μM, 24 hrs, read-out: Summary of effects on NRF2-regulated genes: GCLC): 2.27
fold induction at 10 µM (NRF2; 10 μM, 24 hrs, WI-38, read-out: Expression of at least two NRF2 target genes): > 1.5
fold induction at 10 µM (NRF2; 10 μM, 24 hrs, WI-38 cells, qPCR, normalized to B2M, n = 4, read-out: GCLC expression, normalized fold change (NRF2-regulated gene)): 2.27
fold induction at 10 µM (NRF2; 10 μM, 24 hrs, WI-38 cells, qPCR, normalized to B2M, n = 4, read-out: GSTM1 expression, normalized fold change (NRF2-regulated gene)): 0.78
fold induction at 10 µM (NRF2; 10 μM, 24 hrs, WI-38 cells, qPCR, normalized to B2M, n = 4, read-out: HMOX1 expression, normalized fold change (NRF2-regulated gene)): 28.1
fold induction at 10 µM (NRF2; WI-38 cells, 10 μM, 24 hrs, n=4, qPCR normalized by B2M, read-out: GCLC Normalized fold change): 2.27
fold induction at 10 µM (NRF2; WI-38 cells, 10 μM, 24 hrs, n=4, qPCR normalized by B2M, read-out: GSTM1 Normalized fold change): 0.784
fold induction at 10 µM (NRF2; WI-38 cells, 10 μM, 24 hrs, n=4, qPCR normalized by B2M, read-out: HMOX1 Normalized fold change): 28
fold induction at 10 µM (NRF2; WI-38 cells, 10 μM, 24 hrs, n=4, qPCR normalized by B2M, read-out: NQO1 Normalized fold change): 0.811
F = Potential NRF2 Activation (NRF2; summary score): 2
ILS at 60 µM (C. elegans; in liquid, wild type, with FuDR, 1.0 × 10^9 bacteria/ml, read-out: relative change of mean lifespan vs control, Trial 1): -29.1%
ILS at 60 µM (C. elegans; in liquid, wild type, with FuDR, 2.5 × 10^9 bacteria/ml, read-out: relative change of mean lifespan vs control, Trial 2): 10.1%
ILS at 60 µM (C. elegans; on plate, CF512 temperature-sensitive sterile animals, without FuDR, 2.0 × 10^10 bacteria/ml, read-out: relative change of mean lifespan vs control, Trial 3): -41.6%
ILS at 66 µM (C. elegans; Assay 2(z), 1.0 × 10^9 bacteria/ml, wild type + FuDR (2012 July), read-out: Lifespan assay in liquid): -29.1%
ILS at 66 µM (C. elegans; Assay 3(aa), 2.5 × 10^9 bacteria/ml, wild type + FuDR, read-out: Lifespan assay in liquid): 10.1%
ILS at 66 µM (C. elegans; Assay 4(ab), 2.0 × 10^10 bacteria/ml, CF512 worms, no FuDR, read-out: Lifespan assay on plates): -41.6%
O = Life span- extending scores in worms (C. elegans; score scale 0 to 2, 4 to 6 independent trials): 0
M = Lifespan-extending scores in worms (C. elegans; summary score): 0
